The values below come from patent publication EP3153515A1, “COMPOUNDS FOR INHIBITING HEPATITIS C VIRUS, PHARMACEUTICAL COMPOSITIONS AND USES THEREOF” (priority 2014, dated 2015).

SMILES strings stand for the structures. Read-outs that look alike come from different tables or passages of the source. A value given as a limit tells only on which side of the number the result lay.

Broadly, the EC50 is the concentration that produces a half-maximal response.

For the test, the system named is HCV NS5A replicon GT-1a. The test can be described thus: HCV NS5A replicon anti-viral activity (EC50), dual-reporter Renilla luciferase, GT-1a. The format is cell-based. The note with it: for EC50: Hepatitis C virus; for inhibitory activity compared with Ref-1(BMS-790052), Ref-2(GS5885), Ref-3 and Ref-4 (in words): comparison drawn from Table 2. The text has this: The autonomous replication level of HCV in liver cells in vitro is very low, and the only animal that can be infected by HCV is chimpanzee, therefore there is no appropriate animal model currently available for preclinical pharmacodynamic study. Some researchers have transplanted human liver tissue infected with HCV in vitro into immune deficient mice to establish an in vivo mice model, but these mice are hard to raise and the model is unstable and short of normal immunologic reaction. Moreover, the model has significant difference with the pathogenic process of hepatitis C, therefore, it has not been used for animal model to assess the action of anti-HCV medicine yet. The progress of the development of anti-viral drugs for the treatment of HCV infection had been very slow because the pathogenic mechanism and life cycle of HCV were unclear before 1999 due to the lack of cell culture system for effective multiplication of HCV. But researchers managed to achieve a breakthrough in 1999 after numerous attempts. An effective cell culture model-replicon system in which HCV is capable of autonomous replication in transfected human hepatic carcinoma cell line Huh-7 had been established in that year on the basis of subgenomic HCV RNA built with genetic engineering.
The above-mentioned cell culture model-replicon system which has been widely accepted in the industry is used in this invention for ex vivo experiments and subsequent assessment of drugs based on the experiment results.
The therapeutic effect of the compounds of this invention on HCV infection can be preliminarily assessed through the following preclinical in vitro inhibitory action test and can be further confirmed in clinical trials. Other methods used in the invention are also quite familiar to professionals in this field with ordinary technical knowledge. Method for testing the anti-viral activity(EC50) in HCV NS5A replicon system: • The viral replication level in infected cells was determined by testing Renilla luciferase with the newly established dual-reporter gene replicon system. There was a good linear relation between the expression level of the reporter gene and the HCV RNA replication level and viral protein expression level. The anti-viral activity was determined for 3 replicates in 3 replicate cells at five(5) 1:2 diluted concentration gradients, with 1 to 2 positive controls. The EC50 of the compounds was calculated in the end.
The compounds of the invention, or their stereoisomers, tautomers, esterified or amidated prodrugs, or pharmaceutically acceptable salts and mixtures have been subjected to test to determined their therapeutic effects in the treatment of HCV infection. […] Moreover, the results of 6a-6ep(Ia), 6fa-6gq(Ib) and reference compounds Ref-1(BMS-790052), Ref-2(GS5885), Ref-3 in HCV-NS5 inhibition test reveal that the cyclopentanyl/hexamethyleneamino radical containing linear polypeptide compounds 6a-6ep, 6fa-6gq and reference compounds Ref-1, Ref-2, Ref-3 have good HCV inhibitory results. […] The replicons GT-1a, GT-lb, GT-2a, GT-3a, GT-4a, GT-5a and GT-6a used for the test are routine replicons commercially available in this field. Table 1: HCV NS5A replicon inhibitory activity test results of compounds (6a-6gq) of the invention
A general note: A replicon is a self-replicating genome or part of one, used to study replication in cells.

Where [1] appears, read: GT1A, GT-1a replicon, read-out: NS5A Inhibitory Activity (EC50 of GT-1a subtype inhibition).
Setting [2] is: genotype 1a / genotype 6a, read-out: Inhibitory activity against various HCV-NS5A subtypes(EC50, GT-1a to GT-6a) GT-1a.

As for `COC(=O)N[C@@H](C(=O)N1CCC[C@H]1c1ncc(-c2ccc(-c3cc4sc(-c5cnc([C@@H]6CCCN6C(=O)[C@H](NC(=O)OC)c6ccccc6)[nH]5)cc4s3)cc2)[nH]1)c1ccccc1` [Ref-3, reference compound], the EC50 under setting [1] lay in the range of 1 to 999 pM and the EC50 under setting [2] was found to be 51 pM.
As to `COC(=O)N[C@H](C(=O)N1CC=C[C@H]1c1nc2ccc(-c3ccc(-c4ccc5nc([C@@H]6CCCN6C(=O)[C@@H](NC(=O)OC)C(C)C)[nH]c5c4)c4c3CC3(CCCCC3)C4)cc2[nH]1)C(C)C` [6en], the EC50 under setting [1] lay in the range of 1000 to 49900 pM.
Turning to `COC(=O)NC(C(=O)N1CC=C[C@H]1c1ncc(-c2ccc(-c3ccc(-c4cnc([C@@H]5CCCN5C(=O)C(NC(=O)OC)c5ccccc5)[nH]4)cc3)cc2)[nH]1)c1ccccc1` (stereo partly drawn) [6bz], the EC50 under setting [1] was 1 to 999 pM.
Take `COC(=O)N[C@H](C(=O)N1CCC[C@H]1c1ncc(-c2ccc(-c3ccc(-c4cnc([C@@H]5C=CCN5C(=O)[C@@H](NC(=O)OC)C5CCCCC5)[nH]4)cc3)cc2)[nH]1)C(C)C` [6di]: under setting [1], the EC50 lay in the range of 1 to 999 pM.
Take `COC(=O)N[C@H](C(=O)N1CCC[C@H]1c1nc(-c2ccc(-c3ccc(-c4cnc([C@@H]5CC6(CN5C(=O)[C@@H](NC(=O)OC)C(C)C)OCCO6)[nH]4)cc3)cc2)c[nH]1)C(C)C` [6ds]: the EC50 under setting [1] was in the range of 1 to 999 pM.
`COC(=O)N[C@@H](C(=O)N1CC=C[C@H]1c1nc2ccc(-c3csc4c(-c5cnc([C@@H]6CCCN6C(=O)[C@H](NC(=O)OC)c6ccccc6)[nH]5)csc34)cc2[nH]1)c1ccccc1` [6gk]: the EC50 under setting [1] fell in the range of 1 to 999 pM.
On to `COC(=O)N[C@H](C(=O)N1CCC[C@H]1c1nc2ccc(-c3csc4c(-c5ccc(-c6cnc([C@@H]7C=CCN7C(=O)[C@H](NC(=O)OC)c7ccccc7)[nH]6)c(F)c5)csc34)cc2[nH]1)C(C)C` [6fu], for which the EC50 under setting [1] was 1 to 999 pM.
Take `COC(=O)N[C@H](C(=O)N1CC=C[C@H]1c1ncc(-c2ccc(-c3ccc(-c4cnc([C@@H]5CN(S(C)(=O)=O)CN5C(=O)[C@@H](NC(=O)OC)C(C)C)[nH]4)cc3)cc2)[nH]1)C(C)C` [6cz]: the EC50 under setting [1] lay within 1 to 999 pM.
As to `COC(=O)N[C@H](C(=O)N1CC=C[C@H]1c1ncc(-c2ccc(-c3csc4c(-c5ccc6nc([C@@H]7CCCN7C(=O)[C@@H](NC(=O)OC)C(C)C)[nH]c6c5)csc34)cc2)[nH]1)C(C)C` [6gd], the “inhibitory activity compared with Ref-1(BMS-790052), Ref-2(GS5885), Ref-3 and Ref-4 (in words)” value is “significantly superior”. The EC50 under setting [2] is 4 pM.
In the case of `COC(=O)NC(C(=O)N1CC=C[C@H]1c1nc(-c2ccc(-c3cc4sc(-c5c[nH]c([C@@H]6C=CCN6C(=O)C(NC(=O)OC)c6ccccc6)n5)cc4s3)cc2)c[nH]1)c1ccccc1` (stereo partly drawn) [6cd], under setting [1], the EC50 was more than 50000 pM.
With `CC(C)[C@H](NC(=O)OC(C)(C)C)C(=O)N1C[C@H](OC(=O)N2Cc3cc4c(cc3C2)OCO4)C[C@H]1c1nc(-c2ccc(-c3ccc(-c4cnc([C@@H]5C[C@@H](OC(=O)N6Cc7cc8c(cc7C6)OCO8)CN5C(=O)[C@@H](NC(=O)OC(C)(C)C)C(C)C)[nH]4)cc3)cc2)c[nH]1` [6p], the half-maximal effective concentration (EC50) (GT1A, read-out: NS5A Inhibitory Activity (EC50 of GT-1a subtype inhibition)) was more than 50000 pM.
With `COC(=O)N[C@H](C(=O)N1CCC[C@H]1c1nc(-c2ccc(-c3ccc(-c4cnc([C@@H]5C=CCN5C(=O)[C@@H](NC(=O)OC(C)(C)C)C(C)C)[nH]4)cc3)cc2)c[nH]1)C(C)C` [6bc], the EC50 under setting [1] lay within 1000 to 49900 pM.
As for `COC(=O)N[C@H](C(=O)N1CC=C[C@H]1c1nc(-c2ccc(-c3ccc(-c4c[nH]c([C@@H]5COCCN5C(=O)[C@@H](NC(=O)OC)C(C)C)n4)cc3)cc2)c[nH]1)C(C)C` [6bm], under setting [1], the EC50 fell in the range of 1 to 999 pM.
In the case of `COC(=O)N[C@H](C(=O)N1CC=C[C@H]1c1ncc(-c2ccc(-c3ccc(-c4cnc([C@@H]5CN(S(=O)(=O)C(C)C)CN5C(=O)[C@@H](NC(=O)OC)C(C)C)[nH]4)cc3)cc2)[nH]1)C(C)C` [6dd], the EC50 under setting [1] lay in the range of 1 to 999 pM.
On the same count and under the same terms, the value for `CC(C)[C@H](NC(=O)N(C)C)C(=O)N1CC=C[C@H]1c1ncc(-c2ccc(-c3ccc(-c4cnc([C@@H]5CCCN5C(=O)[C@@H](NC(=O)N(C)C)C(C)C)[nH]4)cc3)cc2)[nH]1` [6cg] was 1 to 999 pM; that for `COC(=O)N[C@H](C(=O)N1CC=C[C@H]1c1ncc(-c2ccc(-c3ccc4[nH]c([C@@H]5CC6(CC6)CN5C(=O)[C@@H](NC(=O)OC)C(C)C)nc4c3)cc2)[nH]1)C(C)C` [6eb] was 1 to 999 pM; that for `COC(=O)N[C@H](C(=O)N1CC=C[C@H]1c1nc2ccc(-c3csc4c(-c5ccc(-c6cnc([C@@H]7CCCN7C(=O)[C@H](NC(=O)OC)c7ccccc7)[nH]6)cc5)csc34)cc2[nH]1)C(C)C` [6fy] was 1 to 999 pM.
On the same count and under the same terms, the value for `COC(=O)N[C@H](C(=O)N1CCC[C@H]1c1ncc(-c2ccc(-c3ccc(-c4cnc([C@@H]5C=CCN5C(=O)[C@@H](NC(=O)N(C)C)C(C)C)[nH]4)cc3)cc2)[nH]1)C(C)C` [6ci] was 1 to 999 pM; that for `COC(=O)N[C@H](C(=O)N1CC=C[C@H]1c1ncc(-c2ccc(-c3csc4c(-c5c[nH]c([C@@H]6CCCN6C(=O)[C@@H](NC(=O)OC)C(C)C)n5)csc34)cc2)[nH]1)C(C)C` [6fj] was 1 to 999 pM; that for `COC(=O)N[C@H](C(=O)N1CCC[C@H]1c1ncc(-c2ccc(-c3cc4sc(-c5cnc([C@@H]6CN(C(=O)N7Cc8cc9c(cc8C7)OCO9)CN6C(=O)[C@@H](NC(=O)OC)C(C)C)[nH]5)cc4s3)cc2)[nH]1)C(C)C` [6bv] was 1 to 999 pM.
As for `COC(=O)NC(C(=O)N1CC=C[C@H]1c1nc(-c2ccc(-c3cc4sc(-c5c[nH]c([C@@H]6CCCN6C(=O)C(NC(=O)OC)c6ccccc6)n5)cc4s3)cc2)c[nH]1)c1ccccc1` (stereo partly drawn) [6cc], under setting [1], the EC50 is more than 50000 pM.
In the case of `CC(C)[C@H](NC(=O)OC(C)(C)C)C(=O)N1CC=C[C@H]1c1nc(-c2ccc(-c3ccc(-c4cnc([C@@H]5C=CCN5C(=O)[C@@H](NC(=O)OC(C)(C)C)C(C)C)[nH]4)cc3)cc2)c[nH]1` [6be], the EC50 under setting [1] was in the range of 1 to 999 pM.
For the molecule `COC(=O)N[C@H](C(=O)N1CC=C[C@H]1c1nc2ccc(-c3csc4c(-c5ccc(-c6cnc([C@@H]7CCCN7C(=O)[C@@H](NC(=O)OC)C(C)C)[nH]6)cc5)csc34)cc2[nH]1)C(C)C` [6fz], the “inhibitory activity compared with Ref-1(BMS-790052), Ref-2(GS5885), Ref-3 and Ref-4 (in words)” value is on record as “significantly superior”. Further, under setting [1], the EC50 was 1 to 999 pM. Also, the EC50 under setting [2] turned out to be 7 pM.
With `COC(=O)N[C@H](C(=O)N1CC=C[C@H]1c1ncc(-c2ccc(-c3ccc(-c4cnc([C@@H]5CC(O)CN5C(=O)[C@@H](NC(=O)OC)C(C)C)[nH]4)cc3)cc2)[nH]1)C(C)C` (stereo partly drawn) [6dq], under setting [1], the EC50 is 1 to 999 pM.
As to `COC(=O)NC(C(=O)N1CCC[C@H]1c1nc(-c2ccc(-c3ccc(-c4c[nH]c([C@@H]5C=CCN5C(=O)[C@@H](NC(=O)OC)C(C)C)n4)cc3)cc2)c[nH]1)c1ccccc1` (stereo partly drawn) [6by], the EC50 under setting [1] is 1 to 999 pM.
For the molecule `COC(=O)N[C@H](C(=O)N1CC=C[C@H]1c1ncc(-c2ccc(-c3ccc(-c4cnc([C@@H]5CN(C(=O)OC(C)(C)C)CN5C(=O)[C@@H](NC(=O)OC)C(C)C)[nH]4)cc3)cc2)[nH]1)C(C)C` [6cw], the EC50 under setting [1] was in the range of 1 to 999 pM.
Same read-out and setting: the value for `COC(=O)N[C@H](C(=O)N1CCC[C@H]1c1nc(-c2csc3c(-c4ccc(-c5cnc([C@@H]6C=CCN6C(=O)[C@H](NC(=O)OC)c6ccccc6)[nH]5)cc4)csc23)c[nH]1)C(C)C` [6fk] was 1 to 999 pM; that for `COC(=O)N[C@H](C(=O)N1CC=C[C@H]1c1ncc(-c2ccc(-c3cccc4c(-c5cnc([C@@H]6CCCN6C(=O)[C@@H](NC(=O)OC)C(C)C)[nH]5)cccc34)cc2)[nH]1)C(C)C` [6ef] was 1 to 999 pM.
On to `COC(=O)NC(C(=O)N1CC=C[C@H]1c1ncc(-c2ccc(-c3cc4sc(-c5cnc([C@@H]6CCCN6C(=O)[C@@H](NC(=O)OC)C(C)C)[nH]5)cc4s3)cc2)[nH]1)c1ccccc1` (stereo partly drawn) [6cb], for which the EC50 under setting [1] is more than 50000 pM.
